The target of series [1] is T1, cell surface human leukocyte elastase (HLE-CS) (Homo sapiens, UniProt P08246).
T1 construct: endogenous in cells
T1 sequence (P08246 30-267): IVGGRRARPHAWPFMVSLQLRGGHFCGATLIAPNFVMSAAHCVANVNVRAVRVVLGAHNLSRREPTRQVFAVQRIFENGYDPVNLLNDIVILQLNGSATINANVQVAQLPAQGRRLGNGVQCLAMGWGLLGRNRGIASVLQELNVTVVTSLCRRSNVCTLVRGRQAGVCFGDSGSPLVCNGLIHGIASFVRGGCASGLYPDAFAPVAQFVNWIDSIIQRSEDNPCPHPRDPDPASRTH
Nature of the series: Adherence of U937 cells to compound-coated glass (binding to HLE-CS). In kind it is cell-based. The note with it: 2,000 U937 cells added per compound-treated well; for Adherent Cells: at optimal adherence concentration. The text has this: Adherence is the first step in cell migration and requires […] calcium, magnesium, signaling, or energy. […] […] After washing and fixing the cells, the number of adherent cells were counted microscopically.

Series [2] deals with T2, soluble, granule-associated human leukocyte elastase (HLE-G) (Homo sapiens, UniProt P08246).
T2 sequence (P08246 30-267): T1 sequence (P08246 30-267)
Nature of the series: Inhibition of soluble human leukocyte elastase (HLE-G), SA3NA substrate, 405 nm. In kind it is biochemical. The conditions noted are these: for IC50: IC50 of compound versus HLE-G (75 μM); for Molar Excess**: Molar excess of compound to HLE-G at IC50. The method, then:
The procedures for measuring the capacity of substances to inhibit soluble forms of elastase or HLE-G are well known to those of ordinary skill in the art (U.S. Pat. No. 6,887,678; Bristow et al., 1998). Briefly, soluble human leukocyte elastase (HLE-G) is incubated for 2 minutes with a test substance, and to this mixture is added the elastase substrate succinic-L-Ala-L-Ala-L-Ala-p-nitroanilide (SA3NA, Sigma-Aldrich). Results are detected by measuring the color change at 405 nm.
Assay 1: Inhibition of HLE (microplate assay, 10 tests per plate) as described in Example 2 above and previously published (Bristow et al., 1998).

Series [3] concerns E. coli DH5-Alpha. Nature of the series: Kirby-Bauer Disk Test, zones of inhibition. In kind it is cell-based. The note with it: for zone of inhibition at 5000 µM: 5 mM. The method, then: […] At this concentration of cells, bacteria were spread on Mueller-Hinton agar plates. […] After incubation for 16 hours at 37° C., plates were examined for zones of inhibition.
Series [4] deals with LDL. Nature of the series: Diet-induced obesity (DIO) mouse model, serum LDL levels. In kind it is in vivo. The note with it: week 6, normalized to vehicle. The method, then:
The well-known Jackson Laboratory (Bar Harbor, Me.) C57BL/6 Diet-Induced Obesity (DIO) mouse model represents human metabolic syndrome and elevated LDL levels. Mice are fed a high fat diet (60% fat) or normal diet (10% fat) for various periods of time and lipoprotein levels were measured. […] In accordance with a protocol used in a recently conducted human clinical trial (NCT01731691), mouse peripheral blood was collected into blood collection tubes, and serum was analyzed for lipoprotein levels using Beckman Coulter AU680 Chemistry System. In addition, cells were analyzed by flow cytometry to quantitate lymphocyte subsets including CD3, CD4, and CD8. As compared to baseline levels (before treatment), lipoprotein levels (including, but not limited to total cholesterol, HDL, LDL, apoA, apoB, apoC, apoE) and blood cells expressing the above mentioned cellular markers were quantitated to determine changes due to treatment. Diet-induced obesity mice (DIO, Jackson Laboratory) were fed a 60% fat diet for 17 weeks. […] Because mice were maintained on the DIO diet throughout the study, body weight and LDL levels increased in the vehicle control (Group 1). To compare the effectiveness of compounds, mean values within each treatment group were normalized by forming a ratio to mean values of vehicle, and the ratio was expressed as normalized % change using to the formula: 100−(Treatment mean/Vehicle mean*100).

For series [5], the system named is T lymphocytes. Nature of the series: Effect on T cell numbers in C57BL6 mice, flow cytometry. In kind it is in vivo, mouse. The conditions noted are these: 5 mg/kg oral gavage, 2 weeks of treatment, change from baseline. As for the experimental part:
Compounds were delivered by oral gavage 5 days per week. Blood was collected weekly for detection of CD3e, CD4, and CD8a T cells by flow cytometry using the mouse T lymphocyte subset antibody cocktail with isotype control (BD Biosciences). The study was performed at the Division of Laboratory Animal Research, Stony Brook University, Stony Brook, N.Y. Staining and statistical analysis was performed by Alpha-1 Biologics, and the samples were acquired by the Flow Cytometry Laboratory, Stony Brook Hospital, using a BD LSRFortessa instrument. […] Data were normally distributed and compared using Student's T-test. Mean % Change in CD3+ T cells for vehicle was −11% and for CD4+CD8+ progenitors was −13%. […] Average percent change from baseline is represented in FIGS. 6A and 6B where % change=100×[(Treatment Mean-Baseline)/Baseline].
A general note: In flow cytometry, cells or beads pass a laser one at a time.

In series [6] the test system is U937 Clone 10 cells. Nature of the series: Receptor polarization, cell migration and SHIV endocytosis in preconditioned cells. In kind it is cell-based, human. As for the experimental part:
The procedures for inducing receptor polarization have been described (Bristow et al., 2003).
To examine receptor polarization, microscope slides are prepared by adding serial dilutions of a β-lactams. Cells are added to the microscope slides and incubated for 30 minutes in humidified 5% CO2 at 37° C. Unattached cells are removed by washing, and attached cells are fixed by application of 4% paraformaldehyde after which attached cells are counted by light microscopy and photographed using confocal microscopy
Receptor Polarization: U937 Clone 10 cells were cultured overnight in AIM-V serum-free medium. Cells were pelleted, re-suspended in AIM-V at 2×10^6/ml, and 250 μl (5×10^5 cells) was added to Eppendorf tubes pre-coated to prevent attachment.
Binding and Endocytosis: AT 2 chemically inactivated SHIV preparations, consisting of non-infectious virus with conformationally and functionally intact envelope glycoproteins, were provided by the AIDS Vaccine Program (SAIC Frederick, Frederick, Md.). Cells were pulsed with virus (30 ng p27 or p24 per 10^6 cells) for 2 hr. at 2° C. which allows binding, but prevents endocytosis. Alternatively, cells were pulsed with virus for 2 hr. at 37° C. which allows binding and endocytosis. Following pulsing for 2 hr., cells were mounted on Alcian blue slides for microscopy. The presence of inactivated virus in test cells was detected using dodecameric human CD4+-IgG1 provided by the Laboratory of Immunoregulation, NIAID, NIH. This reagent specifically recognizes conformationally intact HIV 1/SIV envelope gp120. CD4-IgG1 was detected using HRP-conjugated Rb anti-human IgG (Sigma). CD4+ IgG-labeled cells were coupled to Oregon 488 fluorochrome using the tyramide signal amplification system (Life Science Products, Boston, Mass., USA). […] Cells were analyzed using 2 μm scanning from 3B.

Series [7] deals with HIV permissive (plus) clone 10. Nature of the series: Adherence assay on coverslips, U937 plus clone 10. In kind it is cell-based, human. As for the experimental part: To coverslips prepared with chemoattractants as described above, 10^6 cells in 90 μl HBSS were mixed to uniformity, and incubated for 30 min in humidified 5% CO2 at 37° C. without dehydration. To detect interacting effects of stimulants, cells were delivered in an 80 μl volume to coverslips previously prepared with 10 μl of one stimulant, mixed to uniformity, and incubated for 15 min at 37° C. Subsequently, an additional stimulant was delivered in a 10 μl volume to each coverslip, mixed with pre-incubated cells to uniformity, and incubated for 30-60 min at 37° C. […] Slides were examined by epi-illumination UV microscopy on a Zeiss Axioskop Means and standard deviations were determined by counting adherent cells in at least three fields/coverslip.
Means and standard deviations represent the difference between stimulated and unstimulated adherence. […] Adherence was optimized for each chemoattractant and adherence induced by each chemoattractant was enumerated in more than three separate experiments.

The subject of series [8] is elastase. The conditions noted are these: inhibition of elastase activity as described in the package insert; cited from earlier work.
The mark [9] stands for this setting: Escherichia coli, DH5ALPHA, 10 μl per disk, 16 hours at 37° C., read-out: diameter of zone of inhibition.

Regarding `CC1(C)S[C@@H]2[C@H](NC(=O)[C@H](N)c3ccc(O)cc3)C(=O)N2[C@H]1C(=O)O` [Amoxicillin], in series [1], the “Optimal Adherence Concentration (nM)***” value worked out at 1 nM and the “Adherent Cells” value was 54 ± 20.

Broadly, the IC50 is the concentration needed to halve the response being measured. Low values mean greater potency, high ones weaker potency. As for `C[C@H]1[C@H](NC(=O)/C(=N\OC(C)(C)C(=O)O)c2csc(N)n2)C(=O)N1S(=O)(=O)O` [Aztreonam], in series [1], the “Optimal Adherence Concentration (nM)***” value came out at 1 nM and the “Adherent Cells” value is on record as 33 ± 4. In series [2], the concentration for half-maximal inhibition (IC50) stood at 234 µM and the “Molar Excess**” value turned out to be 3.1.

As for `CO/N=C(\C(=O)N[C@@H]1C(=O)N2C(C(=O)O)=C(COC(N)=O)CS[C@H]12)c1ccco1` [Cefuroxine, Cefuroxime], in series [1], the “Optimal Adherence Concentration (nM)***” value was 1 nM and the “Adherent Cells” value is given as 34 ± 8. In addition, in series [2], the IC50 was 167 µM and the “Molar Excess**” value is 2.2.

For the compound `CC1=C(C(=O)O)N2C(=O)[C@@H](NC(=O)[C@H](N)c3ccccc3)[C@H]2SC1` [Cephalexin], in series [1], the “Optimal Adherence Concentration (nM)***” value is 10 nM and the “Adherent Cells” value is listed as 27 ± 10.

What is called zone of inhibition is the size of the clear area around the sample on an inoculated plate. As for `CC1(C)S[C@@H]2[C@H](NC(=O)[C@H](N)c3ccccc3)C(=O)N2[C@H]1C(=O)O` [D-Ampicillin, Ampicillin], the “activity in the Kirby-Bauer Disk Test” value in series [3] (0.5 mM) was “exhibits activity”. In addition, the zone of inhibition at 500 µM in series [3] (Escherichia coli, DH5ALPHA, 0.5 mM, 10 μl per disk, 16 hours at 37° C., read-out: diameter of zone of inhibition) stood at 15 mm. The zone of inhibition at 5000 µM in series [3] (setting [9]) turned out to be 30 mm.

With `Cc1onc(-c2c(Cl)cccc2Cl)c1C(=O)N[C@@H]1C(=O)N2[C@@H]1SC(C)(C)[C@@H]2C(=O)O` [Dicloxacillin], in series [1], the “Optimal Adherence Concentration (nM)***” value is reported as 1 nM and the “Adherent Cells” value turned out to be 26 ± 9. Besides, in series [2], the IC50 was 232 µM and the “Molar Excess**” value is 3.1.

Take `C[C@@H](O)[C@H]1C(=O)N2C(C(=O)O)=C(S[C@@H]3CN[C@H](CNS(N)(=O)=O)C3)[C@H](C)[C@H]12` [Doripenem]: in series [1], the “Optimal Adherence Concentration (nM)***” value stood at 100 nM and the “Adherent Cells” value came to 52 ± 6. For the same compound, in series [2], it took 178 µM to reach half-maximal inhibition (IC50) and the “Molar Excess**” value worked out at 2.4.

For `O=C1[C@H](CC[C@H](O)c2ccc(F)cc2)[C@@H](c2ccc(O)cc2)N1c1ccc(F)cc1` [Ezetimibe], in series [1], the “Optimal Adherence Concentration (nM)***” value turned out to be 100 nM and the “Adherent Cells” value is 40 ± 3. For the same compound, in series [2], inhibition was half-maximal at 277 µM (IC50) and the “Molar Excess**” value was determined as 3.7. Also, in series [4] (10 mg/kg oral gavage 5 days per week), the “normalized mean % change in LDL” value was −43.8±29.6%.

With `C[C@@H](O)[C@H]1C(=O)N2C(C(=O)O)=C([C@H]3CCCO3)S[C@H]12` [Faropenem], in series [1], the “Optimal Adherence Concentration (nM)***” value came to 10 nM and the “Adherent Cells” value is on record as 23 ± 4. In series [2], the IC50 is 203 µM and the “Molar Excess**” value is listed as 2.7.

Regarding `CC1(C)SC2C(NC(=O)C(N)c3ccccc3)C(=O)N2C1C(=O)O` [L-Ampicillin, (2S,5R,6R)-6-((S)-2-amino-2 phenylacetamcido)-3,3-dimethyl-7-oxo-4-thia-1-azabicyclo[3.2.0] heptane-2-acid], in series [5], the “Mean % Change in CD3+ T cells” value is “+16%” and the “Mean % Change in CD4+CD8+ progenitors” value is “+38%”. The “activity in the Kirby-Bauer Disk Test” value in series [3] (0.5 mM) was “ineffective as an antibiotic”. Further, in series [3] (setting [9]), the zone of inhibition at 5000 µM is 14 mm. The “normalized mean % change in LDL” value in series [4] (5 mg/kg oral gavage 5 days per week) was −41.0±20.5%. The “normalized mean % change in LDL” value in series [4] (50 mg/kg oral gavage 5 days per week) was determined as 3.7%. Also, in series [6], the “cell motility (morphology by confocal microscopy)” value is reported as “exhibited the morphology of cells undergoing cell motility” and the receptor polarization entry is “induces receptor polarization”. In series [6] (FIGS. 3A and 3B), the “cell migration and endocytosis (SHIV)” value was “stimulation of cell migration and endocytosis”.

For `CC1(C)S[C@@H]2[C@H](NC(=O)COc3ccccc3)C(=O)N2[C@H]1C(=O)O` [Pen V, Penicillin V], in series [1], the “Optimal Adherence Concentration (nM)***” value was 10 nM and the “Adherent Cells” value turned out to be 30 ± 4. Besides, in series [2], the 50% inhibitory concentration (IC50) turned out to be 262 µM and the “Molar Excess**” value came to 3.5.

With “MAAPVCK [methoxysuccinyl-L-Ala-L-Ala-L-Pro-L-Val-chloromethylketone]”, the stimulation of adherence result in series [7] was “stimulated to adhere”.

In the case of “N-tosyl-L-phenylalanine chloromethylketone [TPCK]”, in series [7], the stimulation of adherence result is recorded as “stimulated to adhere”.

As to “PROLASTIN-C®: human α1PI, cryoprecipitate preparation isolated from human plasma (Grifols)”, the specific activity in series [8] is 70%.

Regarding “Phe-Leu-Gly-Phe-Leu (FLGFL; printed: Phe-Leu-Gly-Phe-Leu) [synthetic peptide representative of the HIV fusion domain]”, in series [7], the stimulation of adherence result was “stimulated to adhere”.

The values above are taken from US12097190B2, “Therapeutic use of levorotatory β-lactams in hematopoiesis, immuno-oncology therapy, and regulation of lipoprotein and apolipoprotein levels” (Alpha-1 Biologics, LLC, priority 2017, dated 2024).
